From US20250075218A1, “HIF1A OR GLUT1 INHIBITION IN INFLAMMATORY SKIN DISEASES” (New York University, priority 2023, published 2025)
Values joined by “and” are separate entries in the source; they are usually repeats but may differ in a detail not shown here. Equal values may be shown once. “Also recorded” adds a separate entry of the source. Read-outs that look alike come from different tables or passages of the source.

What was measured:
[1] = system: IMQ-treated murine skin; assay: Lactate Secretion Assay of ex vivo murine back skin culture; assay type: cell-based, mouse; conditions: 2-DG 50 mM, 24 hours culture
Description: To examine lactate levels in inflamed skin, full thickness biopsies of IMQ-treated or control skin were cultured for 24 hours, in the presence or absence of glycolysis inhibitor 2DG, and measured lactate in the culture supernatant (FIG. 13A). […] 4 mm full-thickness punch biopsies from IMQ-treated or healthy murine skin were secured with matrigel in 12-well plate and cultured for 24 hours in 400 μl of Dulbecco's Modified Eagle Medium (DMEM) with 10% Fetal Bovine Serum (FBS). For inhibitor studies, cultures were treated with 2-DG (50 mM). At the end of 24 hours, supernatant was collected, centrifuged at 1000 g to pellet debris, and stored in −80C until further use. Lactate was measured using the colorimetric L-Lactate Assay Kit (Abcam).

[2] = system: imiquimod (IMQ) PsO murine model; assay: Imiquimod (IMQ) PsO murine model with topical inhibitor treatment; assay type: in vivo, mouse; conditions: for cutaneous Type 17 immunity: interventional treatment after establishment of inflammation at day 3 of IMQ; for Type 17 cytokines (Il17a, Il22, Il23a, Il1b, Tnfa): topical during the course of IMQ treatment; for cutaneous T cell numbers (dermal CD3+ cells) / epithelial (epidermal) thickness: topical from first day, during the course of IMQ treatment
Description: Murine models of psoriatic inflammation. Topical imiquimod application: For imiquimod studies, seven- to eight-week-old mice in telogen (resting phase of hair cycle) were anesthetized with isoflurane prior to hair removal and imiquimod treatment on dorsal skin. 50 mg of imiquimod cream (5%, Perrigo) was applied to shaved dorsal skin, and application was repeated up to six days as previously described (van der Fits et al., 2009). Intradermal rmIL-23 injection: For recombinant murine (rm) IL-23 studies, the ear pinnae in 8-week-old mice were intradermally injected with either rmIL-23 (500 ng in 20 μl of PBS, carrier-free, PeproTech) or PBS control for five days. Animal drug treatments. […] Murine skin immunofluorescence and image analyses. […] Nuclei were stained with DAPI. […] Data were analyzed using ImageJ software.

[3] = system: PsO lesional human skin; assay: Ex vivo culture of human PsO lesional biopsies, bulk RNA-seq
From the text: Therefore, an ex vivo “trial in a dish” system was devised to test the effects of HIF1α inhibition on PsO lesional human skin. Lesional biopsies were obtained from 5 PsO patients that were either therapy-naïve or non-responsive to biologic therapy (Table 3). […] Surgical foreskin discards were used as healthy control skin and subject to the same treatment regimens.
Human skin culture. 4 mm full-thickness punch biopsies from lesional psoriatic skin and healthy skin (foreskin) were cut into […], secured with matrigel in 24-well plate and cultured within a maximum of 24-hours after removal from the patient. Each biopsy piece was subjected to different treatment conditions: (1) DMSO vehicle, (2) 10 μM of BAY87-2243, and (3) 500 nM of calcipotriol and 5 μM of betamethasone dipropionate (standard of care). The tissue was cultured in 24-well plates in 500 μl of Dulbecco's Modified Eagle Medium (DMEM) with 10% Fetal Bovine Serum (FBS). After 24 hours of culture, tissues were flash-frozen in liquid nitrogen and stored in −80° C. until RNA extraction. Total RNA was extracted using the RNeasy Fibrous Tissue Mini Kit (Qiagen) per manufacturer's instructions. Libraries were generated with Ribo-Zero Plus rRNA Depletion Kit (Illumina) and sequenced on Novaseq 6000 system with 100-bp paired-end reads.
Low-input bulk-RNA sequencing of human and murine skin. For human studies, skin biopsies were flash-frozen in liquid nitrogen following culture and treatment modalities. […] Libraries were generated with Ribo-Zero Plus rRNA Depletion Kit (Illumina) and sequenced on Novaseq 6000 system with 100-bp paired-end reads. […] Reads were trimmed for adapter sequences using trimmomatic (version 0.36) in paired end mode with the minimal read length option set to 35 base pairs, trailing set to 5, and the sliding window set to 4:15. Sequencing reads were aligned to the mouse genome (mm10/GRCm38) and human genome (hg38) using the splice-aware STAR aligner (Dobin et al, 2013). […]

[4] = system: uninflamed skin; conditions: for epidermal HIF1α levels (K14+HIF1α+ cells): topical on uninflamed skin for six days
Description: To examine if HIF1α is sufficient to promote epithelial pathology in the absence of inflammation, a HIF1α activator, FG-4592, was used (Wu et al., 2016). […] Animal drug treatments. EdU pulse: Mice were injected intraperitoneally with EdU (50 μg/g) (Thermo Scientific) three hours prior to sacrifice. PIM HCl: Pimonidazole Hydrochloride (PIM HCl, hypoxyprobe) was injected intraperitoneally into mice (20 mg/kg) two hours prior to sacrifice. BAY 87-2243: BAY 87-2243 (2 mg/ml, Selleck Chemicals) was first dissolved in DMSO and then diluted in a water-based gel. This gel was topically applied to dorsal skin daily starting two days prior to imiquimod application and continuing in parallel with imiquimod application until analysis. Sodium Oxamate: Sodium oxamate (70 mg/ml, Cayman Chemicals) was first dissolved in H2O and then diluted in a water-based gel. This gel was topically applied to dorsal skin daily starting either on the first or fourth day of imiquimod application and continuing in parallel with imiquimod application until analysis. Syrosingopine: Syrosingopine (10 mg/ml, Cayman Chemicals) was first dissolved in DMSO and then diluted in a water-based gel. […] Sections were blocked and stained with primary and secondary fluorescence-conjugated antibody. […] Pimonidazole Hydrochloride (PIM HCl) was detected by pretreating slides with a mouse-on-mouse immunodetection kit (Vector Laboratories) and then staining with biotin-anti-PIM adduct antibodies as per the manufacturer's guidelines (Hypoxyprobe). Data were analyzed using ImageJ software. Epidermal thickness was quantified by measuring K14^+ thickness with an in-house ImageJ macro. Thickness of keratin 6 (K6) and glucose transporter 1 (Glut1) layer was quantified by measuring K6^+K14^+ and Glut1^+K14^+ thickness with an ImageJ macro. The number of CD3 and EdU positive cells was quantified using ImageJ software and normalized per dermis area and length of epidermis, respectively.

[5] = system: epidermal HIF1α; assay: Immunofluorescence of PsO lesions before and after etanercept; assay type: in vivo, human; conditions: n=10
Description: (§1) When compared to contralateral non-lesional skin, the PsO lesion was enriched for HIF1A, IL17RA, and IL17RC (FIGS. 3B and 8H). […] As a complementary analysis, HIF1α protein expression was measured in a cohort of 10 patients treated with etanercept (anti-TNFα) that achieved response (PASI 75 or greater) at 12 weeks (Table 2) (Stinco et al., 2019). […] Collectively, these analyses make a compelling argument for exuberant IL-17A signaling and subsequent HIF1α induction in fueling a pathological epithelial state that is resolved following successful biologic therapy, irrespective of cytokine target.
Human skin immunofluorescence and image analyses. Four-micron paraffin-embedded sections were stained either with hematoxylin and eosin or with Akoya Biosciences® Opal™ multiplex automation kit on a Leica BondRX® autostainer, according to manufacturers' instructions. Semi-automated image acquisition was performed on a Vectra® Polaris multispectral imaging system. After whole slide scanning at 20× the tissue was manually outlined to select fields for spectral unmixing using InForm® version 2.4.11 software from Akoya Biosciences.

[6] = system: PsO patients; assay: Clinical metrics of PsO patients over course of etanercept (anti-TNFα) therapy; assay type: in vivo, human; parameters: BSA: unit not given here
Description: as §1

[7] = BAY 87-2243 topical concurrent with IMQ, vs vehicle
[8] = treatment begins on day 3 of IMQ application, up to day 6, vs vehicle
[9] = vs vehicle, listed as MCT1/MCT4 inhibitor
[10] = Week 2 of etanercept, one line per individual patient
[11] = Week 6 of etanercept, one line per individual patient
[12] = Week 12 of etanercept, one line per individual patient

`O=CC[C@@H](O)[C@H](O)[C@H](O)CO` [2DG, 2-Deoxy-D-glucose] was tested. Which “lactate in culture supernatant, IMQ-treated vs control skin” value [1] did it give?
The value was “diminished”.

And the “lactate in culture supernatant, IMQ-treated vs control skin” value ([1]; listed as 2-DG)?
The value was “lost”.

What does the source list for `Cc1cc(-c2nc(-c3ccc(OC(F)(F)F)cc3)no2)nn1Cc1ccnc(N2CCN(C3CC3)CC2)c1` [BAY 87-2243]?
epidermal thickness ([2]; BAY 87-2243 2 mg/ml gel topical daily from two days prior to and concurrent with IMQ, vs vehicle): diminished; also recorded: significantly reduced; dermal T cells (CD3+) ([2]; BAY 87-2243 topical concurrent with IMQ, vs control): reduction; also recorded: significantly lower numbers; inflammatory Keratin 6 expression (K6 thickness) [2, 7]: significantly reduced; proliferation (Ki67) [2, 7]: significantly reduced; genes associated with glycolytic metabolism, STAT3 activation and epithelial development/differentiation ([3]; PsO lesional skin, 10 μM, 24 hours, vs vehicle): strikingly downregulated; number of differentially expressed genes (DEGs) compared to vehicle control ([3]; PsO lesional skin, 24 hours in culture, FDR<0.05, 10 μM BAY87-2243, SoC 500 nM calcipotriol and 5 μM betamethasone dipropionate): 2921; expression of lactate transporters SLC16A1 (MCT1) and SLC16A3 (MCT4) ([3]; human PsO lesional skin culture, 24 hours): significantly reduced; epidermal thickness ([4]; mouse, in vivo): not altered

For `Cc1nc(C(=O)NCC(=O)O)c(O)c2ccc(Oc3ccccc3)cc12` [FG-4592], which “epidermal HIF1α levels (K14+HIF1α+ cells)” value [4] is on record?
Its value is “effectively heightened”.

What about the “epidermal HIF1α levels (K14+HIF1α+ cells)” value ([4]; listed as FG-4985) of the same compound?
Its value is “increased”.

For `NC(=O)C(=O)[O-].[Na+]` [sodium oxamate], which “cutaneous Type 17 immunity” value [2] is on record?
The value was “decrease”.

What about the “Type 17 cytokines (Il17a, Il22, Il23a, Il1b, Tnfa)” value [2] of the same compound?
The value was “sufficient to limit”.

And the “cutaneous T cell numbers (dermal CD3+ cells)” value ([2]; vs vehicle)?
The value was “diminished; also recorded: sufficient to limit”.

What about the “epithelial (epidermal) thickness” value ([2]; vs vehicle) of the same compound?
Its value is “diminished; also recorded: sufficient to limit”.

What about the epidermal thickness [2, 8] of the same compound?
Its epidermal thickness is “decrease”.

What about the “dermal CD3+ cells” value ([2]; treatment begins on day 3 of IMQ application, vs vehicle) of the same compound?
The value was “diminished”.

Which results are given for `CCOC(=O)Oc1c(OC)cc(C(=O)O[C@@H]2C[C@@H]3CN4CCc5c([nH]c6cc(OC)ccc56)[C@H]4C[C@@H]3[C@H](C(=O)OC)[C@H]2OC)cc1OC` [syrosingopine]?
cutaneous Type 17 immunity [2]: decrease; Type 17 cytokines (Il17a, Il22, Il23a, Il1b, Tnfa) [2]: sufficient to limit; cutaneous T cell numbers (dermal CD3+ cells) ([2]; vs vehicle): sufficient to limit; epithelial (epidermal) thickness ([2]; vs vehicle): sufficient to limit; cutaneous T cell numbers (dermal CD3+ cells) [2, 9]: diminished; epithelial (epidermal) thickness [2, 9]: diminished; epidermal thickness [2, 8]: decrease; dermal CD3+ cells ([2]; treatment begins on day 3 of IMQ application, vs vehicle, listed as MCT1/MCT4 inhibitor): diminished

How did the “cutaneous Type 17 cells” value ([5]; etanercept responsive patients) turn out when etanercept was run?
Its value is “reduction”.

And the “epidermal hyperplasia (epidermal thickness)” value ([5]; etanercept-responsive patients, post-treated vs pre-treated lesional skin)?
The value was “reduced epidermal hyperplasia”.

And the “expression of (nuclear) epidermal HIF1α” value ([5]; post-treated vs pre-treated lesional PsO epidermis, responsive patients)?
Its value is “lower expression; also recorded: reduced”.

And the BSA [6, 10]?
The BSA was 9 and 22 and 15 (2×) and 11 and 12 and 76 and 29 and 19 and 20.

And the “Static Physician's Global Assessment (SPGA)” value [6, 10]?
The value was 3 (6×) and 2 (2×) and 4 (2×).

What about the PASI ([6]; Week 2 of etanercept, one line per individual patient (Patient 28-40)) of the same compound?
The PASI was 9.5 and 3.9 and 8.1 and 9.4 and 14.3 and 31.5 and 17.4 and 18.8 and 10.7 and 10.8.

What about the BSA [6, 11] of the same compound?
Its BSA is 8 (2×) and 4 and 15 and 11 and 39 and 25 and 13 and 18 and 16.

What about the PASI [6, 11] of the same compound?
Its PASI is 7.4 and 2.7 and 4.8 and 8.4 and 4.4 and 15 and 6.6 and 12.3 and 8.2 and 4.5.

And the “Static Physician's Global Assessment (SPGA)” value [6, 11]?
The value was 3 (3×) and 1 and 2 (6×).

What about the BSA [6, 12] of the same compound?
The BSA was 6 and 3 (2×) and 10 and 15 and 27 and 1 and 7 and 18 and 8.

And the PASI [6, 12]?
The PASI was 4.5 (2×) and 2.7 and 2.4 and 11.6 and 3.2 and 12 and 0 and 2 and 8.4.

What about the “Static Physician's Global Assessment (SPGA)” value [6, 12] of the same compound?
Its value is 2 (4×) and 1 (4×) and 3 (2×).

What about the PASI response achieved ([6]; cohort of 10 patients, at 12 weeks) of the same compound?
The PASI response achieved was at least 75.
